Data: article PMC12227648, “Chemoproteomics identifies protein ligands for monoacylglycerol lipids” (Communications Chemistry, 2025)

Columns and labels:
mouse HPCA (Hippocalcin) [1] = biological target: T1, mouse HPCA (Hippocalcin) (Mus musculus, UniProt P84075); test: UV photocrosslinking, click rhodamine-azide, in-gel fluorescence; format: binding; details: probe 10 uM or 0-250 uM, HPCA 10 uM, 50 mM Tris pH 8.0, 37 C, 6 min UV 365 nm, covalent photo-crosslink
T1 construct: full-length cDNA in pET45b(+), N-terminal 6x-His tag kept, E. coli BL21 (DE3), HisTrap purified; major ~20 kDa and minor ~25 kDa bands

[2] = biological target: T2, HPCA (N-terminal FLAG tag) in HEK293T lysates (Mus musculus, UniProt P84075); test: UV photocrosslinking in lysate, click, in-gel fluorescence; format: biochemical; details: probe 50 uM, 2 mg/mL HEK293T lysate; covalent photo-crosslink; mock control
T2 construct: N-terminal FLAG tag, transiently overexpressed in HEK293T

mouse HPCA (Hippocalcin) [3] = biological target: T1, mouse HPCA (Hippocalcin); test: effect on PG-DA photo-labelling, in-gel fluorescence; details: HPCA 10 uM, PG-DA 10 uM, 1-PG 0-250 uM, 37 C, 30 min; raises, not competes, probe binding (suggested cooperative)

SMILES: C#CCCCC1(CCCCCCCCCC(=O)OCC(O)CO)N=N1 (stereo not shown) [PG-DA]
- UV photocrosslinking, click rhodamine-azide, in-gel fluorescence (mouse HPCA (Hippocalcin) [1]; Ca2+ surplus versus EDTA compared): PG-DA bound significantly more to mouse HPCA than the PA-DA probe
- UV photocrosslinking in lysate, click, in-gel fluorescence [2]: PG-DA probe, but not PA-DA probe, was able to bind to HPCA in HEK293T lysates

SMILES: CCCCCCCCCCCCCCCC(=O)OCC(O)CO (stereo not shown) [1-PG]
- effect on PG-DA photo-labelling, in-gel fluorescence (mouse HPCA (Hippocalcin) [3]): increasing the 1-PG concentration resulted in the heightened binding of the PG-DA probe

SMILES: C#CCCCC1(CCCCCCCCCC(=O)O)N=N1 [PA-DA]
- UV photocrosslinking, click rhodamine-azide, in-gel fluorescence (mouse HPCA (Hippocalcin) [1]; weaker control probe): PG-DA probe binds far more to HPCA than the PA-DA probe
